Activity calls are given as the source filed them. No cut-off for these calls is given here.
Experiments:
[1] = Half life in male mouse at 2 mg/kg, iv; format: ADME, organism-based; details: in vivo
[2] = target: CYP2D6 (Homo sapiens, UniProt P10635); experiment: Inhibition of CYP2D6 (unknown origin) at 10 uM relative to control; format: ADME
[3] = tested on: HCT-116; experiment: Induction of apoptosis in human HCT-116 cells assessed as increase in cleaved caspase 3 expression incubated for 24 hrs by Western blotting analysis; format: functional, cell-based; details: dose 5-10 µM
[4] = tested on: HCT-116; experiment: Antitumor activity against human HCT-116 cells expressing firefly luciferase xenografted in male athymic nude BALB/c mouse assessed as decrease in bioluminescent signals at 50 mg/kg, ip administered once daily by bioluminescence imaging analysis; format: functional, organism-based
[5] = tested on: SW480; experiment: Antiproliferative activity against human SW480 cells assessed as inhibition of cell proliferation incubated for 24 to 48 hrs by CCK-8 assay; format: functional, cell-based; details: dose 1.5-12.5 µM, time 24-48 hrs
[6] = Toxicity in male athymic nude BALB/c mouse xenografted with human HCT-116 cells assessed as change in body weight at 1 to 10 mg/kg, ip administered once daily and measured after 19 days; format: organism-based; details: in vivo, 456 h, dose 1-10 mg/kg, time 19 day
[7] = tested on: SW-620; experiment: Induction of apoptosis in human SW620 cells assessed as upregulation of total P53 protein expression at 5 to 10 uM incubated for 24 hrs by Western blotting analysis; format: functional, cell-based; details: dose 5-10 µM
[8] = tested on: HCT-116; experiment: Antitumor activity against human HCT-116 cells xenografted in male athymic nude BALB/c mouse assessed as tumor growth inhibition at 1 mg/kg, ip measured after 19 days relative to control; format: functional; details: HCT-116, 456 h, time 19 day, read-out: TGI
[9] = tested on: HCT-116; experiment: Induction of apoptosis in human HCT-116 cells assessed as upregulation of acetylated P53 protein expression at 5 to 10 uM incubated for 24 hrs by Western blotting analysis; format: functional, cell-based; details: dose 5-10 µM
[10] = tested on: HCT-116; experiment: Induction of apoptosis in human HCT-116 cells assessed as increase in apoptotic cells at 5 to 10 uM incubated for 24 hrs by Annexin V/propidium iodide staining based FACS assay; format: functional, cell-based; details: dose 5-10 µM
[11] = AUCt in male mouse at 2 mg/kg, iv; format: ADME, organism-based; details: in vivo
[12] = tested on: HCT-116; experiment: Antiproliferative activity against human HCT-116 cells assessed as inhibition of cell proliferation incubated for 24 to 48 hrs by CCK-8 assay; format: functional, cell-based; details: dose 1.5-12.5 µM, time 24-48 hrs
[13] = tested on: SW-620; experiment: Induction of apoptosis in human SW620 cells assessed as increase in cleaved PARP expression incubated for 24 hrs by Western blotting analysis; format: functional, cell-based; details: dose 5-10 µM
[14] = target: 5-hydroxytryptamine receptor 7 (Homo sapiens) (UniProt P34969); experiment: Inhibition of 5HTR7 (unknown origin) at 1 uM relative to control
[15] = tested on: SW-620; experiment: Induction of apoptosis in human SW620 cells assessed as increase in cleaved caspase 3 expression incubated for 24 hrs by Western blotting analysis; format: functional, cell-based; details: dose 5-10 µM
[16] = target: T1, 5-hydroxytryptamine receptor 2B (Homo sapiens, UniProt P41595); experiment: Inhibition of 5HTR2B (unknown origin) at 1 uM relative to control
[17] = tested on: SW-620; experiment: Antiproliferative activity against human SW620 cells assessed as inhibition of cell proliferation at 1.5 to 12.5 uM by CCK-8 assay; format: functional, cell-based; details: dose 1.5-12.5 µM, time 24-48 hrs
[18] = tested on: RKO; experiment: Antiproliferative activity against human RKO cells assessed as inhibition of cell proliferation incubated for 24 to 48 hrs by CCK-8 assay; format: functional, cell-based; details: dose 1.5-12.5 µM, time 24-48 hrs
[19] = tested on: SW-620; experiment: Induction of apoptosis in human SW620 cells assessed as increase in apoptotic cells at 5 to 10 uM incubated for 24 hrs by Annexin V/propidium iodide staining based FACS assay; format: functional, cell-based; details: dose 5-10 µM
[20] = target: T2, CYP1A2 (Homo sapiens, UniProt P05177); experiment: Inhibition of CYP1A2 (unknown origin) at 10 uM relative to control; format: ADME
T2 sequence (P05177 whole entry): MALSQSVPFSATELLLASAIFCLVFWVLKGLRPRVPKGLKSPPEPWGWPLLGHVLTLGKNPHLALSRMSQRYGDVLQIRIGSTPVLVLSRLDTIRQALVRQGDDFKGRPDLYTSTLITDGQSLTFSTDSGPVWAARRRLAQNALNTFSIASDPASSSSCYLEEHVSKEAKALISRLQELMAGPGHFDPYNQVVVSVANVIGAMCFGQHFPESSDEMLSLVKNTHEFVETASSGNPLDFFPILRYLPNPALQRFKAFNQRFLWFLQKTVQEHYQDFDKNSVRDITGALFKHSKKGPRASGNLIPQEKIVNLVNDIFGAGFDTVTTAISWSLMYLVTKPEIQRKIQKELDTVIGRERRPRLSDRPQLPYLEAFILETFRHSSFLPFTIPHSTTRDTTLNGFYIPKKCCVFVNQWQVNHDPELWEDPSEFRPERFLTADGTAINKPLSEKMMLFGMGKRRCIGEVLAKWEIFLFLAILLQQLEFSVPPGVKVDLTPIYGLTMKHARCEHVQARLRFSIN

[21] = tested on: SW480; experiment: Antiproliferative activity against human SW480 cells assessed as inhibition of cell proliferation at 1.5 to 12.5 uM by CCK-8 assay; format: functional, cell-based; details: dose 1.5-12.5 µM, time 24-48 hrs
[22] = target: CYP3A4 (Homo sapiens, UniProt P08684); experiment: Inhibition of CYP3A4 (unknown origin) at 10 uM relative to control; format: ADME
[23] = Drug concentration in male ICR mouse plasma at 10 mg/kg, ip measured after 1 hr; format: ADME, organism-based
[24] = tested on: CCD-18Co; experiment: Cytotoxicity against human CCD-18Co cells assessed as inhibition of cell proliferation at 1.5 to 12.5 uM by CCK-8 assay; format: toxicity, cell-based; details: dose lower 1.5 µM, time lower 24 hrs, dose upper 12.5 µM, time upper 48 hrs
[25] = target: CYP2C9 (Homo sapiens, UniProt P11712); experiment: Inhibition of CYP2C9 (unknown origin) at 10 uM relative to control; format: ADME
[26] = target: hERG (KCNH2) (Homo sapiens, UniProt Q12809); experiment: Inhibition of hERG at 10 uM relative to control; format: toxicity
[27] = target: T1, 5-hydroxytryptamine receptor 2B; experiment: Inhibition of 5HTR2B (unknown origin)
[28] = tested on: HCT-116; experiment: Induction of apoptosis in human HCT-116 cells assessed as increase in cleaved PARP expression incubated for 24 hrs by Western blotting analysis; format: functional, cell-based; details: dose 5-10 µM
[29] = target: 5-hydroxytryptamine receptor 6 (Homo sapiens) (UniProt P50406); experiment: Inhibition of 5HTR6 (unknown origin) at 1 uM relative to control
Sequence of 5-hydroxytryptamine receptor 6 (Homo sapiens) (P50406 whole entry): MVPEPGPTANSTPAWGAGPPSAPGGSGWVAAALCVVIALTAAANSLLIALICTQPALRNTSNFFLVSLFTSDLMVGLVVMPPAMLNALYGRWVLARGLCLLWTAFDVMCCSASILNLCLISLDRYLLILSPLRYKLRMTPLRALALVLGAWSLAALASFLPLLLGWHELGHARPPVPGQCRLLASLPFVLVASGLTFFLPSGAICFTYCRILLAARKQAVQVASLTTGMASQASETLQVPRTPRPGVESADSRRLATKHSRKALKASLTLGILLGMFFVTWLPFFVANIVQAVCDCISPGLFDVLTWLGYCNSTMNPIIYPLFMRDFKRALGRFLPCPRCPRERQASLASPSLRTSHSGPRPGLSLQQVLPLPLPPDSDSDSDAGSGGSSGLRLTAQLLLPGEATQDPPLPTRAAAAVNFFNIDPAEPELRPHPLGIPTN

T1 sequence (P41595 whole entry): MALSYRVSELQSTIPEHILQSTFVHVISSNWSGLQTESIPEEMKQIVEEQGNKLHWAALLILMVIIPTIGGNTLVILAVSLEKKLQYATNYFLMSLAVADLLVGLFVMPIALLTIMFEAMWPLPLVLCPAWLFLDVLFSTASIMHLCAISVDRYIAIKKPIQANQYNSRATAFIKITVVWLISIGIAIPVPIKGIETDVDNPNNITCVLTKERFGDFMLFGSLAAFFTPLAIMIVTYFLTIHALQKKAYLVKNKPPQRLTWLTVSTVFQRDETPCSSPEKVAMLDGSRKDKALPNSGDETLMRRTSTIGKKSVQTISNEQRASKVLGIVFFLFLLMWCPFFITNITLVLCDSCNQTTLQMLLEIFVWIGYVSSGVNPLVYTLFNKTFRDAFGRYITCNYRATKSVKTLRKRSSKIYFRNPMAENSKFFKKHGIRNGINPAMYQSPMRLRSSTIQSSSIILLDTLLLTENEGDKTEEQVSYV
Sequence of 5-hydroxytryptamine receptor 7 (Homo sapiens) (P34969 whole entry): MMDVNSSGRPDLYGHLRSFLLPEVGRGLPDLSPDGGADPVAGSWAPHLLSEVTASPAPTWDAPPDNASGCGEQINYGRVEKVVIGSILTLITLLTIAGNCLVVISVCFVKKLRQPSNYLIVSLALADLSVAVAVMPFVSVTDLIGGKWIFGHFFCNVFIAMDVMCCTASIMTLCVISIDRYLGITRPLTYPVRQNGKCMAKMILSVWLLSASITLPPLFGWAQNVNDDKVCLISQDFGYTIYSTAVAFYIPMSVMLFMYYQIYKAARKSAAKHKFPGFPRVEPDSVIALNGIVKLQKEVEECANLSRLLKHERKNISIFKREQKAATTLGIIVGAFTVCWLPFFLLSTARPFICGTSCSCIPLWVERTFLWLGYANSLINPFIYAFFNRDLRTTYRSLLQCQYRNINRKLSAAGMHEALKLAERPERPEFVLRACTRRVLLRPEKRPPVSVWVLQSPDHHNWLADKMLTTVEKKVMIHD
Sequence of hERG (KCNH2) (Q12809 whole entry): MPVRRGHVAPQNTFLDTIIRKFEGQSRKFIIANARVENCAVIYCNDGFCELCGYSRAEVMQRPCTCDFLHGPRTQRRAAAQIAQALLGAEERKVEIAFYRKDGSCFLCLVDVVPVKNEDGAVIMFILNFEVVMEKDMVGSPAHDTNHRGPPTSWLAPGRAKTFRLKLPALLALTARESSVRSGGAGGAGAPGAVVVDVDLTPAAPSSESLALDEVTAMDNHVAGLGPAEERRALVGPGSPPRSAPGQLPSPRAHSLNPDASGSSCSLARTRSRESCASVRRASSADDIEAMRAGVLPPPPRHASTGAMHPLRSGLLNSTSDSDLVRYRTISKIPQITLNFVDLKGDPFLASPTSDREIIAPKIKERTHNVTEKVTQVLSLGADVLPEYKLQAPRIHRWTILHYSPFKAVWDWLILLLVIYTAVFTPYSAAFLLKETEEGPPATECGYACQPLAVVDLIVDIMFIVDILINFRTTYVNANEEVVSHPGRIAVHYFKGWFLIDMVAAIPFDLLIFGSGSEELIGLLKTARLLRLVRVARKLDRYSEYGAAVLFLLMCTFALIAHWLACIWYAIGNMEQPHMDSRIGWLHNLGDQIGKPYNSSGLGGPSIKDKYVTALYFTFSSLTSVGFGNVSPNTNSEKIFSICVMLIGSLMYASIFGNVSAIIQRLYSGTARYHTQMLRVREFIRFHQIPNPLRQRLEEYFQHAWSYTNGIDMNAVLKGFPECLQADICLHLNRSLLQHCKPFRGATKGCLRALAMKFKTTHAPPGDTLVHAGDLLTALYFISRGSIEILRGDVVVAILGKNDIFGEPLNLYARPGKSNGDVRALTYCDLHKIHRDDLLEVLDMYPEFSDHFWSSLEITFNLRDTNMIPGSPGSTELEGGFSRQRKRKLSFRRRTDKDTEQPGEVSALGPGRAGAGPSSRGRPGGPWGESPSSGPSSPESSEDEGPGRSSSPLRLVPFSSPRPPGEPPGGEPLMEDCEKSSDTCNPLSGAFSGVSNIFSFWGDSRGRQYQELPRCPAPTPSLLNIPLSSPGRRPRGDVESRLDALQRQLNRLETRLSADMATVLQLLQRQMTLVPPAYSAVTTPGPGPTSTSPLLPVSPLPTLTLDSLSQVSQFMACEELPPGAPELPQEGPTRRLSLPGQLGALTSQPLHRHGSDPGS
Sequence of CYP3A4 (P08684 whole entry): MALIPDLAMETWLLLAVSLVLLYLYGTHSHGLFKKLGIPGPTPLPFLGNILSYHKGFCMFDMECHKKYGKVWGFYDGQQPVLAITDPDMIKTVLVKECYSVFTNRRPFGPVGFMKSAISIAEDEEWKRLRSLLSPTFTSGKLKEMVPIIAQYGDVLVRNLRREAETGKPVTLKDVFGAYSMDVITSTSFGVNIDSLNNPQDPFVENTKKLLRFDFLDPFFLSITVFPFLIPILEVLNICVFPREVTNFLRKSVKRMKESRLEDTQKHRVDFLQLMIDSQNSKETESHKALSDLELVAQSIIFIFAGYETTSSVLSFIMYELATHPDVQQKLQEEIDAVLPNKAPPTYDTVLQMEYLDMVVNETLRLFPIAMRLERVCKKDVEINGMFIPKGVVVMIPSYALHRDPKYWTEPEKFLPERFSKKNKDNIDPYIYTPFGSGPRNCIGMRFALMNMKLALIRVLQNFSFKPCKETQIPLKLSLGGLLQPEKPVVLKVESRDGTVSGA
Sequence of CYP2D6 (P10635 whole entry): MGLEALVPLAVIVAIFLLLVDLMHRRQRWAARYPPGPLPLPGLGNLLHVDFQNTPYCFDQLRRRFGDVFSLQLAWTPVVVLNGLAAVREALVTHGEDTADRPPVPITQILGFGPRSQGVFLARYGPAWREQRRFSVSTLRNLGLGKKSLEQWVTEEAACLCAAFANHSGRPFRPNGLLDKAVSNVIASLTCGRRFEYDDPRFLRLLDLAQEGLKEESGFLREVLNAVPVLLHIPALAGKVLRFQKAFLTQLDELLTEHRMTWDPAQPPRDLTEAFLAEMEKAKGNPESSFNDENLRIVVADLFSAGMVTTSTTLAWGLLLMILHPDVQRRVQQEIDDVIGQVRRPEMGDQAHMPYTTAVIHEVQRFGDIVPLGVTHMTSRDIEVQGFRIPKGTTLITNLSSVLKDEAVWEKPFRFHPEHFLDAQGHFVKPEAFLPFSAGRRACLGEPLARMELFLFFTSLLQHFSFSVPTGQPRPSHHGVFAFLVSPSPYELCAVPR
Sequence of CYP2C9 (P11712 whole entry): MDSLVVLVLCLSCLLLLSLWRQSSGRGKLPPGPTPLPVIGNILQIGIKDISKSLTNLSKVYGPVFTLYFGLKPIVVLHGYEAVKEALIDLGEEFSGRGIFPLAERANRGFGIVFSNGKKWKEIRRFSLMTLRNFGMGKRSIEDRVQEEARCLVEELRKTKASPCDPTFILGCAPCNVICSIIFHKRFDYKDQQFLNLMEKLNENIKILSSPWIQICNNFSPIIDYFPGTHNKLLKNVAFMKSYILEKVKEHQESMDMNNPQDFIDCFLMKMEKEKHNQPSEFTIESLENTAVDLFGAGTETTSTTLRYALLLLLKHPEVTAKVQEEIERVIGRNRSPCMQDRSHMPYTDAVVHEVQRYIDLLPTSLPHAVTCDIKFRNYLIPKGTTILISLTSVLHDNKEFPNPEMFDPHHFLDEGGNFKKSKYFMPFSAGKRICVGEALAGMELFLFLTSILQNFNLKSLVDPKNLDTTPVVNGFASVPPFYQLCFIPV

half-life [1]: 13.9 h | inhibition at 10 µM [2]: 55.1% | AUC(0-t) [11]: 300 ng·h/mL | inhibition [14]: 102% | inhibition [16]: 84.8% | inhibition at 10 µM [20]: 4.6% | inhibition at 10 µM [22]: 9.6% | concentration at 1 h [23]: 463 ng/mL | inhibition at 10 µM [25]: 5% | IC50 [27]: 621 nM | inhibition [29]: -5%
SMILES: Cl.Cl.O=C(NCc1ccc(OCC(O)CN2CCN(c3noc4cc(F)ccc34)CC2)cc1)N(Cc1ccc(F)cc1)C1CCNCC1 (centres undefined)
Activity [3]: Dose-dependent-effect | Activity [4]: Active | Activity [5]: Dose-dependent-effect | Activity [6]: Non-toxic | Activity [7]: Active | inhibition in vivo at 1 mg/kg [8]: 38.8% | Activity [9]: Active | Activity [10]: Active | Activity [12]: Dose-dependent-effect | Activity [13]: Dose-dependent-effect | Activity [15]: Dose-dependent-effect | Activity [17]: Time-dependent-effect | Activity [18]: Dose-dependent-effect | Activity [19]: Active | Activity [21]: Time-dependent-effect | Activity [24]: Time-dependent-effect | inhibition at 10 µM [26]: 52% | Activity [28]: Dose-dependent-effect

— ChEMBL document CHEMBL6096690, “Synthesis and Biological Evaluation of Peripheral HTR2A Antagonists for Colorectal Cancer” (J Med Chem, 2025)
